Test results from US20250213575A1, “8-HETEROCYCLIC-3-(PHENYLSULFONYL)-[1,2,3]TRIAZOLO[1,5A]QUINAZOLIN-5(4H)-ONE DERIVATIVES AS ANTI-BACTERIALS” (priority 2022, published 2025).
Marks after values point to notes of the source that are not given here.

Target: AgrA (Staphylococcus aureus, UniProt P0A0I7)
Assay: cell-based
Design: species or system S. aureus USA300 strain UAMS-1625
Details: for Ratio IC50 (in presence of HSA)/IC50 (in absence of HSA): 40 mg/mL HSA vs without HSA
[1] = IC50 at 40 mg/mL HSA, LB medium supplemented with 40 mg/mL human serum albumin
[2] = IC50 without HSA, LB medium, without HSA
[3] = LB medium supplemented with 40 mg/mL human serum albumin
[4] = concentration inhibiting the expression of lacZ, in the absence of HSA or HS

Chain of AgrA (P0A0I7 whole entry): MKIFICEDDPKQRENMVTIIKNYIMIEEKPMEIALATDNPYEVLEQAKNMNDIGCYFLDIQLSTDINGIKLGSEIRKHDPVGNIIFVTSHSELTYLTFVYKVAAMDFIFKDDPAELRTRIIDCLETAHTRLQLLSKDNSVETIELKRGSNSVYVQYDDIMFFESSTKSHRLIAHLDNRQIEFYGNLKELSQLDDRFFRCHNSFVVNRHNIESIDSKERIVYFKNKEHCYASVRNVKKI

Cc1ccc(S(=O)(=O)c2nnn3c2[nH]c(=O)c2ccc(N4CCN(C(C)(C)C)CC4)cc23)c(C)c1 [Compound 41, 8-(4-tert-butylpiperazin-1-yl)-3-(2,4-dimethylbenzenesulfonyl)-4H,5H-[1,2,3]triazolo[1,5-a]quinazolin-5-one]
Ratio IC50 (in presence of HSA)/IC50 (in absence of HSA): +++ (ratio ≤ 25)
IC50 [1]: 20.2 to 101 µM
IC50 [2]: 2.02 to 10.1 µM

Cc1ccc(S(=O)(=O)c2n[nH]n3c2nc(=O)c2ccc(N4CCC5(CCCN(C)C5)CC4)cc23)c(C)c1 [Compound 4, 3-(2,4-dimethylbenzenesulfonyl)-8-{2-methyl-2,9-diazaspiro[5.5]undecan-9-yl}-1H,5H-[1,2,3]triazolo[1,5-a]quinazolin-5-one]
Ratio IC50 (in presence of HSA)/IC50 (in absence of HSA): +++ (ratio ≤ 25)
IC50 [1]: 19.2 to 96 µM
IC50 [2]: 1.92 to 9.6 µM

Cc1ccc(S(=O)(=O)c2nnn3c2[nH]c(=O)c2ccc(N4CCN(C5COC5)CC4)cc23)c(C)c1 [Compound 55, 3-(2,4-dimethylbenzenesulfonyl)-8-[4-(oxetan-3-yl)piperazin-1-yl]-4H,5H-[1,2,3]triazolo[1,5-a]quinazolin-5-one]
Ratio IC50 (in presence of HSA)/IC50 (in absence of HSA): ++ (ratio ≤ 125)
IC50 [1]: < 20.2 µM
IC50 [2]: < 2.02 µM

Cc1ccc(S(=O)(=O)c2nnn3c2[nH]c(=O)c2ccc(N4CCCN(C)CC4)cc23)c(C)c1 [Compound 49, 3-(2,4-dimethylbenzenesulfonyl)-8-(4-methyl-1,4-diazepan-1-yl)-4H,5H-[1,2,3]triazolo[1,5-a]quinazolin-5-one]
Ratio IC50 (in presence of HSA)/IC50 (in absence of HSA): +++ (ratio ≤ 25)
IC50 [1]: 21.4 to 107 µM
IC50 [2]: 2.14 to 10.7 µM

Cc1ccc(S(=O)(=O)c2nnn3c2[nH]c(=O)c2ccc(N4CCC5(CNCCO5)C4)cc23)c(C)c1 (centres unmarked) [Compound 7, 3-(2,4-dimethylbenzenesulfonyl)-8-{6-oxa-2,9-diazaspiro[4.5]decan-2-yl}-4H,5H-[1,2,3]triazolo[1,5-a]quinazolin-5-one]
Ratio IC50 (in presence of HSA)/IC50 (in absence of HSA): +++ (ratio ≤ 25)
IC50 [1]: < 20.2 µM
IC50 [2]: < 2.02 µM

4-[3-(2,4-dimethylbenzenesulfonyl)-5-oxo-4H,5H-[1,2,3]triazolo[1,5-a]quinazolin-8-yl]piperazine-1-sulfonamide [Compound 62]
Ratio IC50 (in presence of HSA)/IC50 (in absence of HSA): ++ (ratio ≤ 125)
IC50 at 40 mg/mL HSA [3]: ++ (10 μg/mL < IC50 ≤ 50 μg/mL)
IC50 without HSA (LB medium, without HSA): +++ (IC50 ≤ 1 μg/mL)

Cc1ccc(S(=O)(=O)c2n[nH]n3c2nc(=O)c2ccc(N4CCC5(CCNC[C@@H]5O)CC4)cc23)c(C)c1 [Compound 19, 3-(2,4-dimethylbenzenesulfonyl)-8-[(7R)-7-hydroxy-3,9-diazaspiro[5.5]undecan-3-yl]-1H,5H-[1,2,3]triazolo[1,5-a]quinazolin-5-one]
Ratio IC50 (in presence of HSA)/IC50 (in absence of HSA): +++ (ratio ≤ 25)
IC50 [1]: 19.1 to 95.7 µM
IC50 [2]: 1.91 to 9.57 µM

Cc1ccc(S(=O)(=O)c2n[nH]n3c2nc(=O)c2ccc(N4CCC5(CC4)CN(C)CCO5)cc23)c(C)c1 [Compound 16, 3-(2,4-dimethylbenzenesulfonyl)-8-{4-methyl-1-oxa-4,9-diazaspiro[5.5]undecan-9-yl}-1H,5H-[1,2,3]triazolo[1,5-a]quinazolin-5-one]
Ratio IC50 (in presence of HSA)/IC50 (in absence of HSA): ++ (ratio ≤ 125)
IC50 [1]: 19.1 to 95.7 µM
IC50 [2]: < 1.91 µM

Cc1ccc(S(=O)(=O)c2n[nH]n3c2nc(=O)c2ccc(N4CCC5(CCN(C)CC5)C4)cc23)c(C)c1 [Compound 3, 3-(2,4-dimethylbenzenesulfonyl)-8-{8-methyl-2,8-diazaspiro[4.5]decan-2-yl}-1H,5H-[1,2,3]triazolo[1,5-a]quinazolin-5-one]
Ratio IC50 (in presence of HSA)/IC50 (in absence of HSA): +++ (ratio ≤ 25)
IC50 [1]: < 19.7 µM
IC50 [2]: < 1.97 µM

Cc1ccc(S(=O)(=O)c2nnn3c2[nH]c(=O)c2cc(O)ccc23)c(C)c1 [46 (WO 2020/109350), reference compound]
IC50 (IC50 at 40 mg/mL HSA (cells marked *), marked *: activity in presence of 50% of human serum, not determined in 40 mg/mL HSA): > 135 µM
IC50 [2]: < 2.7 µM
Ratio (cells marked *) (calculated based on activity in presence of 50% of human serum): +* (ratio > 125)
IC50 [4]: < 2.7 µM

Cc1ccc(S(=O)(=O)c2nnn3c2[nH]c(=O)c2ccc(N4CCCN(CCO)CC4)cc23)c(C)c1 [Compound 46, 3-(2,4-dimethylbenzenesulfonyl)-8-[4-(2-hydroxyethyl)-1,4-diazepan-1-yl]-4H,5H-[1,2,3]triazolo[1,5-a]quinazolin-5-one]
Ratio IC50 (in presence of HSA)/IC50 (in absence of HSA): +++ (ratio ≤ 25)
IC50 [1]: 20.1 to 101 µM
IC50 [2]: < 2.01 µM

Cc1ccc(S(=O)(=O)c2nnn3c2[nH]c(=O)c2ccc(N4CCOC5(CNC5)C4)cc23)c(C)c1 [Compound 9, 3-(2,4-dimethylbenzenesulfonyl)-8-{5-oxa-2,8-diazaspiro[3.5]nonan-8-yl}-4H,5H-[1,2,3]triazolo[1,5-a]quinazolin-5-one]
Ratio IC50 (in presence of HSA)/IC50 (in absence of HSA): +++ (ratio ≤ 25)
IC50 [1]: 20.8 to 104 µM
IC50 [2]: 2.08 to 10.4 µM

Cc1ccc(S(=O)(=O)c2n[nH]n3c2nc(=O)c2ccc(N4CC5(C4)CC(C)(O)C5)cc23)c(C)c1 [Compound 21, 3-(2,4-dimethylbenzenesulfonyl)-8-{6-hydroxy-6-methyl-2-azaspiro[3.3]heptan-2-yl}-1H,5H-[1,2,3]triazolo[1,5-a]quinazolin-5-one]
Ratio IC50 (in presence of HSA)/IC50 (in absence of HSA): ++ (ratio ≤ 125)
IC50 [1]: 20.9 to 104 µM
IC50 [2]: < 2.09 µM

Cc1ccc(S(=O)(=O)c2nnn3c2[nH]c(=O)c2ccc(N4CCC4)cc23)c(C)c1 [45 (WO 2020/109350), reference compound]
Ratio IC50 (in presence of HSA)/IC50 (in absence of HSA): + (ratio > 125)
IC50 [1]: > 122 µM
IC50 [2]: < 2.44 µM
IC50 [4]: < 2.44 µM
activity in the presence of HSA (or HS), inactive at highest concentration tested (in the presence of HSA (or HS)): > 128 µg/mL

Cc1ccc(S(=O)(=O)c2nnn3c2[nH]c(=O)c2ccc(N4CCN(CCO)CC4)cc23)c(C)c1 [Compound 43, 3-(2,4-dimethylbenzenesulfonyl)-8-[4-(2-hydroxyethyl)piperazin-1-yl]-4H,5H-[1,2,3]triazolo[1,5-a]quinazolin-5-one]
Ratio IC50 (in presence of HSA)/IC50 (in absence of HSA): ++ (ratio ≤ 125)
IC50 [1]: 20.7 to 104 µM
IC50 [2]: < 2.07 µM

Cc1ccc(S(=O)(=O)c2nnn3c2[nH]c(=O)c2ccc(N4CCN(C5CC5)CC4)cc23)c(C)c1 [Compound 60, 8-(4-cyclopropylpiperazin-1-yl)-3-(2,4-dimethylbenzenesulfonyl)-4H,5H-[1,2,3]triazolo[1,5-a]quinazolin-5-one]
Ratio IC50 (in presence of HSA)/IC50 (in absence of HSA): ++ (ratio ≤ 125)
IC50 [1]: 20.9 to 104 µM
IC50 [2]: < 2.09 µM

Cc1ccc(S(=O)(=O)c2nnn3c2[nH]c(=O)c2ccc(N4C[C@H]5CNC[C@H]5C4)cc23)c(C)c1 [Compound 40, 8-[(3aR,6aS)-octahydropyrrolo[3,4-c]pyrrol-2-yl]-3-(2,4-dimethylbenzenesulfonyl)-4H,5H-[1,2,3]triazolo[1,5-a]quinazolin-5-one]
Ratio IC50 (in presence of HSA)/IC50 (in absence of HSA): +++ (ratio ≤ 25)
IC50 [1]: 21.5 to 108 µM
IC50 [2]: 2.15 to 10.8 µM

Cc1ccc(S(=O)(=O)c2nnn3c2[nH]c(=O)c2ccc(N4C[C@@H](C)N(C)[C@@H](C)C4)cc23)c(C)c1 [Compound 25, rac-3-(2,4-dimethylbenzenesulfonyl)-8-[(3R,5S)-3,4,5-trimethylpiperazin-1-yl]-4H,5H-[1,2,3]triazolo[1,5-a]quinazolin-5-one]
Ratio IC50 (in presence of HSA)/IC50 (in absence of HSA): +++ (ratio ≤ 25)
IC50 [1]: < 20.8 µM
IC50 [2]: < 2.08 µM

Cc1ccc(S(=O)(=O)c2n[nH]n3c2nc(=O)c2ccc(N4CCN(C5CCN(C)CC5)CC4)cc23)c(C)c1 [Compound 59, 3-(2,4-dimethylbenzenesulfonyl)-8-[4-(1-methylpiperidin-4-yl)piperazin-1-yl]-1H,5H-[1,2,3]triazolo[1,5-a]quinazolin-5-one]
Ratio IC50 (in presence of HSA)/IC50 (in absence of HSA): +++ (ratio ≤ 25)
IC50 [1]: 18.7 to 93.3 µM
IC50 [2]: 1.87 to 9.33 µM

3-(2,4-dimethylbenzenesulfonyl)-8-(4-methanesulfonylpiperazin-1-yl)-4H,5H-[1,2,3]triazolo[1,5-a]quinazolin-5-one [Compound 61]
Ratio IC50 (in presence of HSA)/IC50 (in absence of HSA): ++ (ratio ≤ 125)
IC50 at 40 mg/mL HSA [3]: ++ (10 μg/mL < IC50 ≤ 50 μg/mL)
IC50 without HSA (LB medium, without HSA): +++ (IC50 ≤ 1 μg/mL)

Cc1ccc(S(=O)(=O)c2nnn3c2[nH]c(=O)c2ccc(N4C[C@H](C)NC[C@H]4C)cc23)c(C)c1 (racemic) [Compound 28, rac-3-(2,4-dimethylbenzenesulfonyl)-8-[(2R,5S)-2,5-dimethylpiperazin-1-yl]-4H,5H-[1,2,3]triazolo[1,5-a]quinazolin-5-one]
Ratio IC50 (in presence of HSA)/IC50 (in absence of HSA): +++ (ratio ≤ 25)
IC50 [1]: < 21.4 µM
IC50 [2]: < 2.14 µM

Cc1ccc(S(=O)(=O)c2nnn3c2[nH]c(=O)c2ccc(N4CCN5CCOCC5C4)cc23)c(C)c1 (centres unmarked) [Compound 30, 3-(2,4-dimethylbenzenesulfonyl)-8-{octahydropyrazino[2,1-c][1,4]oxazin-8-yl}-4H,5H-[1,2,3]triazolo[1,5-a]quinazolin-5-one]
Ratio IC50 (in presence of HSA)/IC50 (in absence of HSA): +++ (ratio ≤ 25)
IC50 [1]: 20.2 to 101 µM
IC50 [2]: 2.02 to 10.1 µM

Cc1ccc(S(=O)(=O)c2nnn3c2[nH]c(=O)c2ccc(N4CC5(CCN5C)C4)cc23)c(C)c1 [Compound 12, 3-(2,4-dimethylbenzenesulfonyl)-8-{1-methyl-1,6-diazaspiro[3.3]heptan-6-yl}-4H,5H-[1,2,3]triazolo[1,5-a]quinazolin-5-one]
Ratio IC50 (in presence of HSA)/IC50 (in absence of HSA): +++ (ratio ≤ 25)
IC50 [1]: 21.5 to 108 µM
IC50 [2]: < 2.15 µM

Cc1ccc(S(=O)(=O)c2nnn3c2[nH]c(=O)c2ccc(N4CCCNCC4)cc23)c(C)c1 [Compound 47, 8-(1,4-diazepan-1-yl)-3-(2,4-dimethylbenzenesulfonyl)-4H,5H-[1,2,3]triazolo[1,5-a]quinazolin-5-one]
Ratio IC50 (in presence of HSA)/IC50 (in absence of HSA): +++ (ratio ≤ 25)
IC50 [1]: < 22.1 µM
IC50 [2]: < 2.21 µM

Cc1ccc(S(=O)(=O)c2nnn3c2[nH]c(=O)c2ccc(N4CC5CCC(C4)N5)cc23)c(C)c1 [Compound 50]
IC50 [1]: < 21.5 µM
IC50 [2]: 2.15 to 10.8 µM
